Measured values as given in publication PMC10407959 (Journal of medicinal chemistry, 2023).
Entries after “also recorded” stand apart in the source; their conditions may differ. Read-outs that look alike come from different tables or passages of the source.

Tests used:
mouse CCI model = experiment: mouse model of chronic neuropathic pain; conditions: for reversal of mechano-allodynia (paw withdrawal threshold): day 7 post-sciatic nerve constriction, adult male mice
[1] = tested on: protease-mediated mouse model of allergic asthma; experiment: protease-mediated mouse model of allergic asthma, BAL fluid cells; conditions: 10 mg/kg i.p., C57BL/6J mice
5-HT5A = 5-HT5A (Homo sapiens, UniProt P47898); experiment: PDSP off-target radioligand binding
Sequence of 5-HT5A (P47898 whole entry, species assumed): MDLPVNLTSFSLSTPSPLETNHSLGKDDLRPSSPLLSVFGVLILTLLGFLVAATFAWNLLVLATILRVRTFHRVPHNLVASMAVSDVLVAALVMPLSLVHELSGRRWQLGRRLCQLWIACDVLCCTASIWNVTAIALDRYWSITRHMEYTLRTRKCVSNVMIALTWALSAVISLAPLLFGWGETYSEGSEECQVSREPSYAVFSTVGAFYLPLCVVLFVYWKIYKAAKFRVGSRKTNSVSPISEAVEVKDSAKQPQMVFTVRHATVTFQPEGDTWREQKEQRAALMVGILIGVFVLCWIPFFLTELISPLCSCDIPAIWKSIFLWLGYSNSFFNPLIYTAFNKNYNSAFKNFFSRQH

hP2Y14R [2] = biological target: T1, hP2Y14R (Homo sapiens, UniProt Q15391); experiment: whole-cell fluorescent competitive binding assay
T1 sequence (Q15391 1-338): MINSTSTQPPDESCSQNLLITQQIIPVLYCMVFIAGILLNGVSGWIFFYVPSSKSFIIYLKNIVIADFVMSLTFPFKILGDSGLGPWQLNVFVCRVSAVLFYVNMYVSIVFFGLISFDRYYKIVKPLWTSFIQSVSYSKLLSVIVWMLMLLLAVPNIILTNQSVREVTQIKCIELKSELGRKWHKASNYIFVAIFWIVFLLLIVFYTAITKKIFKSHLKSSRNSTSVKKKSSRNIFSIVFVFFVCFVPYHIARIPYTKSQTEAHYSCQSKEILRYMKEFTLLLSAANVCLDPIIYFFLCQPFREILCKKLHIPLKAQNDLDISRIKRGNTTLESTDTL

[3] = male, Wistar, rat, in vivo, ip
[4] = pharmacokinetics and tolerability in male Wistar rats
[5] = tested on: cardiac ischemia-reperfusion (I/R) injury; experiment: cardiac ischemia-reperfusion; assay type: in vivo, mouse; conditions: 2 mg/kg/day minipump
mP2Y14R = biological target: T2, mP2Y14R (Mus musculus, UniProt Q9ESG6); experiment: whole-cell fluorescent binding assay at mP2Y14R expressed in HEK-293 cells
T2 sequence (Q9ESG6 1-338): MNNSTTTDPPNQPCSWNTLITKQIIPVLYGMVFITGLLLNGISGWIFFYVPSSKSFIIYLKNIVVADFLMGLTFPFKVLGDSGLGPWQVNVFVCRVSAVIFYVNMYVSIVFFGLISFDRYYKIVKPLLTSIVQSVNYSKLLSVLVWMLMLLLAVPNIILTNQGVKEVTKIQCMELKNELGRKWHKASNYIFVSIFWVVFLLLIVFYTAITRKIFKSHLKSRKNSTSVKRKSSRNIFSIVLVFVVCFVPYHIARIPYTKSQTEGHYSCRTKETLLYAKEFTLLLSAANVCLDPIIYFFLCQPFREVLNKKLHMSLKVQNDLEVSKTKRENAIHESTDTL

[6] = pharmacokinetics of double prodrug 62 p.o. in female CD1 mice; conditions: 62 by oral gavage (p.o.)
[7] = pharmacokinetics of mono-ester prodrug 63 s.c. in female CD1 mice; conditions: 10 mg/kg s.c.
hP2Y14R [8] = biological target: T1, hP2Y14R; experiment: fluorescent binding saturation study in whole CHO cells expressing hP2Y14R; conditions: final concentrations of 53 of 2, 100, 500, and 20,000 nM
[9] = in mouse; cited from earlier work
[10] = tested on: Nonhuman primate (chimpanzee) P2Y14R; conditions: read-out: IC50 (P2Y14R), ref Belley et al.[15]; cited from earlier work
HPLC-based Log D7.4 = assay type: physicochemical; conditions: from HPLC retention factors, calibration with five standards
σ2 receptor = biological target: T3, σ2 receptor (Rattus norvegicus, UniProt Q5U3Y7); experiment: PDSP off-target radioligand binding; conditions: read-out: Ki, σ2 receptor; NIMH PDSP
T3 sequence (Q5U3Y7 1-176): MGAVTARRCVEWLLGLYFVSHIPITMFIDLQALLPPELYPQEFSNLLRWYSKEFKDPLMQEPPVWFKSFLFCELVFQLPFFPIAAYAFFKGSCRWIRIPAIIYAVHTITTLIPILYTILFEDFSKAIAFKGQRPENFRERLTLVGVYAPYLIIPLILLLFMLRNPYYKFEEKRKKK

serotonin 5-HT1B = serotonin 5-HT1B (Homo sapiens, UniProt P28222); experiment: PDSP off-target radioligand binding; conditions: read-out: Ki, serotonin 5-HT1B; NIMH PDSP
Sequence of serotonin 5-HT1B (P28222 whole entry): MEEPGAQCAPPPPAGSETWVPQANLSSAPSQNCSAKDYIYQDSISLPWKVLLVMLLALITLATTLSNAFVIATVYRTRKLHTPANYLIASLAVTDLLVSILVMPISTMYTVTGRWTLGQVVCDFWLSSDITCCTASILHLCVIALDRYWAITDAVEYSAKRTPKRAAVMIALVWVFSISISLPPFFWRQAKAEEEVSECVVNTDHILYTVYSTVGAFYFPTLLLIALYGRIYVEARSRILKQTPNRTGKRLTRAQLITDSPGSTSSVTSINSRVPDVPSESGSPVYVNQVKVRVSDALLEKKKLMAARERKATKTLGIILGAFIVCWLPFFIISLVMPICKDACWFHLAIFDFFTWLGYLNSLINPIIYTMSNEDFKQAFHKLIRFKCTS

σ1 receptor = σ1 receptor (Cavia porcellus, UniProt Q60492); experiment: PDSP off-target radioligand binding; conditions: read-out: Ki, σ1 receptor; NIMH PDSP
Sequence of σ1 receptor (Q60492 whole entry): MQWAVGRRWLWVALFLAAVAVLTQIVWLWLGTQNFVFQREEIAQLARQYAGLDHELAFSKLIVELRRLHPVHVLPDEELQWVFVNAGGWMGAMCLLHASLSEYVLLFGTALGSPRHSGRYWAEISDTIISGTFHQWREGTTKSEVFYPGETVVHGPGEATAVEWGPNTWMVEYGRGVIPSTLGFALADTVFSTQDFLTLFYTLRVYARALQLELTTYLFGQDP

Which results are given for `CCOC(=O)N1C[C@H]2C[C@@H](C1)[C@@]2(O)c1ccc(-c2cc(C(=O)OCC(=O)N(C)C)cc3cc(-c4ccc(C(F)(F)F)cc4)ccc23)cc1` [compound 50, Ethyl (1R,5S,6r)-6-(4-(3-((2-(Dimethylamino)-2-oxoethoxy)-carbonyl)-6-(4-(trifluoromethyl)phenyl)naphthalen-1-yl)phenyl)-6-hydroxy-3-azabicyclo[3.1.1]heptane-3-carboxylate]?
reversal of mechano-allodynia (paw withdrawal threshold) (mouse CCI model; 10 μmol/kg, p.o. (oral gavage)): reversed the mechano-allodynia; airway eosinophilia (eosinophils in BAL fluid) [1]: lack of activity

Which results are given for `O=C(O)c1cc(-c2ccc(C3CCCNCC3)cc2)c2ccc(-c3ccc(C(F)(F)F)cc3)cc2c1` (stereo not shown) [compound 16, 4-(4-(Azepan-4-yl)phenyl)-7-(4-(trifluoromethyl)phenyl)-2-naphthoic Acid]?
Ki (5-HT5A): 4800 nM; reversal of mechano-allodynia (paw withdrawal threshold) (mouse CCI model; i.p. injection): provided benefit

Which “ligand efficiency (LE)” value (hP2Y14R [2]) does the source give for `O=C(O)c1cc(-c2ccc([C@]3(O)[C@@H]4CNC[C@H]3C4)cc2)c2ccc(-c3ccc(C(F)(F)F)cc3)cc2c1` [compound 15, 4-(4-((1R,5S,6r)-6-Hydroxy-3-azabicyclo[3.1.1]heptan-6-yl)-phenyl)-7-(4-(trifluoromethyl)phenyl)-2-naphthoic Acid] here?
Its value is 0.311.

What about the Maximal plasma concentration ([3]; 1 mg/kg) of the same compound?
Its Maximal plasma concentration is 0.50 µM.

And the Maximal plasma concentration ([3]; 3 mg/kg)?
Its Maximal plasma concentration is 1.3 µM.

What about the Maximal plasma concentration ([3]; 10 mg/kg) of the same compound?
The Maximal plasma concentration was 4.0 µM.

What about the “mortality or morbidity / tolerability” value ([4]; male Wistar rats, 1, 3, and 10 mg/kg i.p. and 0.5 mg/kg i.v.) of the same compound?
Its value is “well tolerated”.

What about the half-life ([4]; male, Wistar, rat, plasma, ip, 3 mg/kg) of the same compound?
Its half-life is 4.3 h.

What about the “reversal of mechano-allodynia (paw withdrawal threshold)” value (“reversal of mechano-allodynia” for short) (mouse CCI model; 10 μmol/kg, p.o. (oral gavage)) of the same compound?
Its value is “nearly complete protection at 1 h; also recorded: reversed the mechano-allodynia”.

And the “reversal of mechano-allodynia” value (mouse CCI model; i.p. injection)?
Its value is “full reversal of mechano-allodynia within 0.5 h”.

And the “duration of the protection” value (mouse CCI model; oral gavage, 10 μmol/kg, 1 and 15 in the same CCI experiment)?
Its value is “longer than protection by 1”.

And the “protection against heart I/R injury” value [5]?
The value was “no protection against heart I/R injury”.

And the “airway eosinophilia (eosinophils in BAL fluid)” value [1]?
Its value is “demonstrated significant protection”.

And the “lymphocytes in the BAL fluid” value [1]?
The value was “trend toward lower lymphocytes”.

And the “mP2Y14R affinity higher than reference antagonist 1” value (mP2Y14R)?
Its value is 4.5 fold.

What does the source list for `CCOC(=O)N1CCC(c2ccc(-c3cc(C(=O)OCC(=O)N(C)C)cc4cc(-c5ccc(C(F)(F)F)cc5)ccc34)cc2)CC1` [compound 62, Ethyl 4-(4-(3-((2-(Dimethylamino)-2-oxoethoxy)carbonyl)-6-(4-(trifluoromethyl)phenyl)naphthalen-1-yl)phenyl)piperidine-1-carboxylate]?
oral bioavailability [6]: 6.9 % F; peak concentration [6]: ~ 2 μg/mL; reversal of mechano-allodynia (paw withdrawal threshold) (mouse CCI model; i.p. injection): provided benefit

Which “reversal of mechano-allodynia” value (mouse CCI model; i.p. injection) does the source give for `CCOC(=O)N1C[C@H]2C[C@@H]1C[C@@H]2c1ccc(-c2cc(C(=O)OCC(=O)N(C)C)cc3cc(-c4ccc(C(F)(F)F)cc4)ccc23)cc1` [compound 64, reference compound] here?
The value was “provided benefit”.

Which “in vivo cleavage of prodrug to active drug 2b” value [7] does the source give for `CN(C)C(=O)COC(=O)c1cc(-c2ccc([C@H]3C[C@H]4C[C@@H]3CN4)cc2)c2ccc(-c3ccc(C(F)(F)F)cc3)cc2c1` [compound 63, reference compound] here?
Its value is “rapid cleavage of the ester group”.

What about the “reversal of mechano-allodynia” value (mouse CCI model; 10 μmol/kg, p.o. (oral gavage)) of the same compound?
Its value is “fully efficacious within 1 h”.

Which “specific binding in whole CHO cells expressing the hP2Y14R” value (hP2Y14R [8]) does the source give for `C[Si]1(C)C2=CC(=[N+]3CCC3)C=CC2=C(c2cc(C(=O)NCCCCCCn3cc(CCCCN4CCC(c5ccc(-c6cc(C(=O)O)cc7cc(-c8ccc(C(F)(F)F)cc8)ccc67)cc5)CC4)nn3)ccc2C(=O)[O-])c2ccc(N3CCC3)cc21` [compound 53] here?
The value was “did not demonstrate potent specific binding”.

With `O=C(O)c1cc(-c2ccc(C3CCNCC3)cc2)c2ccc(-c3ccc(C(F)(F)F)cc3)cc2c1` [compound 1, 4-(4-(Piperidin-4-yl)phenyl)-7-(4-(trifluoromethyl)phenyl)-2-naphthoic Acid, reference compound] as the compound, how does the oral bioavailability [9] read?
Its oral bioavailability is 5 % F.

What about the “reversal of mechano-allodynia” value (mouse CCI model; 10 μmol/kg, p.o. (oral gavage)) of the same compound?
The value was “full reversal of mechano-allodynia; also recorded: reversed the mechano-allodynia”.

And the IC50 [10]?
Its IC50 is 2.2 nM.

And the “airway eosinophilia (eosinophils in BAL fluid)” value [1]?
The value was “reduce airway eosinophilia”.

And the “lymphocytes in the BAL fluid” value [1]?
The value was “trend toward lower lymphocytes”.

With `O=C(O)c1cc(-c2ccc(C3(O)C[C@H]4CNC[C@@H]4C3)cc2)c2ccc(-c3ccc(C(F)(F)F)cc3)cc2c1` (racemic) [compound 11, rac-4-(4-((3aR,6aR)-5-Hydroxyoctahydrocyclopenta[c]pyrrol-5-yl)phenyl)-7-(4-(trifluoromethyl)phenyl)-2-naphthoic Acid] as the compound, how does the Ki (5-HT5A) read?
Its Ki is 2400 nM.

What about the “reversal of mechano-allodynia” value (mouse CCI model; i.p. injection) of the same compound?
Its value is “maintained over 3 h”.

Which “Log D7.4” value (HPLC-based Log D7.4) does the source give for “Mixture of 4-(4-(2,3,6,7-Tetrahydro-1H-azepin-4-yl)phenyl)-7-(4-(trifluoromethyl)phenyl)-2-naphthoic Acid and 4-(4-(2,5,6,7-Tetra-hydro-1H-azepin-4-yl)phenyl)-7-(4-(trifluoromethyl)phenyl)-2-naphthoic Acid [compound 17]” here?
The value was 2.2±0.0.

And the Ki (5-HT5A; read-out: Ki, 5-HT5A, NIMH PDSP)?
Its Ki is 4000 nM.

And the Ki (σ2 receptor)?
Its Ki is 3900 nM.

What about the Ki (hP2Y14R [2]) of the same compound?
Its Ki is 6.92 nM.

What about the IC50 (hP2Y14R [2]; read-out: IC50 (nM), affinity at hP2Y14R, whole-cell fluorescent binding, tracer 52 (20 nM), hP2Y14R-CHO cells, n = 3–4 unless noted) of the same compound?
The IC50 was 11.9 ± 3.6 nM.

And the Ki (serotonin 5-HT1B)?
Its Ki is 4100 nM.

And the Ki (σ1 receptor)?
Its Ki is 840 nM.

For `O=C(Cc1ccc(C(F)(F)F)cc1)Nc1cccc(-c2nc3cc(Cl)ccc3o2)c1` [4a, reference compound], which binding inhibition (hP2Y14R [2]; up to 100 μM, tracer 52, hP2Y14R-expressing CHO cells) is on record?
Its binding inhibition is “no binding inhibition”.

For `O=C(O)c1cc(-c2ccc(C3=C[C@H]4CNC[C@@H]4C3)cc2)c2ccc(-c3ccc(C(F)(F)F)cc3)cc2c1` (racemic) [compound 12, rac-4-(4-((3aR,6aR)-1,2,3,3a,4,6a-Hexahydrocyclopenta[c]-pyrrol-5-yl)phenyl)-7-(4-(trifluoromethyl)phenyl)-2-naphthoic Acid], which “more potent at the mP2Y14R (vs human)” value (mP2Y14R) is on record?
Its value is 3 fold.
